Laboratory results as given in ChEMBL document CHEMBL3734667 (Bioorg Med Chem, 2015).

System: not listed separately
Test: Cytotoxicity against human MT4 cells assessed as cell viability after 96 hrs by MTT assay
Format: cell-based
Details: not given

Compound | CC50 at 96 h [µM]
COc1cc(C(=O)OCCn2nc3ccccc3n2)cc(OC)c1OC | 0.3
COc1ccc(-n2nc3cc(Cl)c(Cl)cc3n2)cc1 | > 100
O=C(Cn1nc2ccccc2n1)N1CCOCC1 | > 100
COc1cc(/C=C/C(=O)OCCn2nnc3ccccc32)cc(OC)c1OC | 45
[O-][n+]1c2ccccc2nn1-c1ccc(O)cc1 | > 100
Cc1cc2nnn(C3CCCO3)c2cc1C (configuration not stated) | > 100
COc1cc(C(=O)OCCn2nnc3ccccc32)cc(OC)c1OC | 1.9
Clc1cc2nn(C3CCCO3)nc2cc1Cl (configuration not stated) | > 100

System: not listed separately
Test: Cytotoxicity against MDBK cells assessed as cell viability after 48 to 96 hrs by MTT assay
Format: cell-based, Bos taurus
Details: cattle

Compound | CC50 [µM]
COc1cc(C(=O)OCCn2nc3ccccc3n2)cc(OC)c1OC | 6
COc1ccc(-n2nc3cc(Cl)c(Cl)cc3n2)cc1 | > 100
O=C(Cn1nc2ccccc2n1)N1CCOCC1 | > 100
COc1cc(/C=C/C(=O)OCCn2nnc3ccccc32)cc(OC)c1OC | 70
[O-][n+]1c2ccccc2nn1-c1ccc(O)cc1 | > 100
Cc1cc2nnn(C3CCCO3)c2cc1C (configuration not stated) | > 100
COc1cc(C(=O)OCCn2nnc3ccccc32)cc(OC)c1OC | 40
Clc1cc2nn(C3CCCO3)nc2cc1Cl (configuration not stated) | > 100

System: not listed separately
Test: Cytotoxicity against BHK cells assessed as cell viability after 48 to 96 hrs by MTT assay
Format: cell-based, Mesocricetus auratus
Details: hamster

Compound | CC50 [µM]
COc1cc(C(=O)OCCn2nc3ccccc3n2)cc(OC)c1OC | 26
COc1ccc(-n2nc3cc(Cl)c(Cl)cc3n2)cc1 | > 100
O=C(Cn1nc2ccccc2n1)N1CCOCC1 | > 100
COc1cc(/C=C/C(=O)OCCn2nnc3ccccc32)cc(OC)c1OC | > 100
[O-][n+]1c2ccccc2nn1-c1ccc(O)cc1 | > 100
Cc1cc2nnn(C3CCCO3)c2cc1C (configuration not stated) | > 100
COc1cc(C(=O)OCCn2nnc3ccccc32)cc(OC)c1OC | 70
Clc1cc2nn(C3CCCO3)nc2cc1Cl (configuration not stated) | > 100

System: not listed separately
Test: Cytotoxicity against african green monkey Vero 76 cells assessed as cell viability after 48 to 96 hrs by crystal violet staining method
Format: cell-based
Details: chlorocebus sabaeus

Compound | CC50 [µM]
COc1cc(C(=O)OCCn2nc3ccccc3n2)cc(OC)c1OC | 1.6
COc1ccc(-n2nc3cc(Cl)c(Cl)cc3n2)cc1 | > 100
O=C(Cn1nc2ccccc2n1)N1CCOCC1 | > 100
COc1cc(/C=C/C(=O)OCCn2nnc3ccccc32)cc(OC)c1OC | > 100
[O-][n+]1c2ccccc2nn1-c1ccc(O)cc1 | > 100
COc1cc(C(=O)OCCn2nnc3ccccc32)cc(OC)c1OC | 80

System: Bovine viral diarrhea virus 1
Test: Antiviral activity against BVDV infected in MDBK cells assessed as inhibition of virus-induced cytopathogenicity after 3 to 4 days by MTT assay
Format: functional, organism-based
Details: Bovine viral diarrhea virus isolates and strains

Compound | EC50 [µM]
COc1cc(C(=O)OCCn2nc3ccccc3n2)cc(OC)c1OC | > 100
COc1ccc(-n2nc3cc(Cl)c(Cl)cc3n2)cc1 | > 100
O=C(Cn1nc2ccccc2n1)N1CCOCC1 | > 100
COc1cc(/C=C/C(=O)OCCn2nnc3ccccc32)cc(OC)c1OC | > 100
[O-][n+]1c2ccccc2nn1-c1ccc(O)cc1 | > 100
Cc1cc2nnn(C3CCCO3)c2cc1C (configuration not stated) | > 100
COc1cc(C(=O)OCCn2nnc3ccccc32)cc(OC)c1OC | > 100
Clc1cc2nn(C3CCCO3)nc2cc1Cl (configuration not stated) | > 100

System: Yellow fever virus
Test: Antiviral activity against YFV infected in BHK-21 cells assessed as inhibition of virus-induced cytopathogenicity after 3 to 4 days by MTT assay
Format: functional, organism-based
Details: not given

Compound | EC50 [µM]
COc1cc(C(=O)OCCn2nc3ccccc3n2)cc(OC)c1OC | > 100
COc1ccc(-n2nc3cc(Cl)c(Cl)cc3n2)cc1 | > 100
O=C(Cn1nc2ccccc2n1)N1CCOCC1 | > 100
COc1cc(/C=C/C(=O)OCCn2nnc3ccccc32)cc(OC)c1OC | > 100
[O-][n+]1c2ccccc2nn1-c1ccc(O)cc1 | > 100
Cc1cc2nnn(C3CCCO3)c2cc1C (configuration not stated) | > 100
COc1cc(C(=O)OCCn2nnc3ccccc32)cc(OC)c1OC | > 100
Clc1cc2nn(C3CCCO3)nc2cc1Cl (configuration not stated) | > 100

System: Mammalian orthoreovirus 1
Test: Antiviral activity against Reo-1 virus infected in BHK-21 cells assessed as inhibition of virus-induced cytopathogenicity after 3 to 4 days by MTT assay
Format: functional, cell-based
Details: Mammalian orthoreovirus 1, BHK-21

Compound | EC50 [µM]
COc1ccc(-n2nc3cc(Cl)c(Cl)cc3n2)cc1 | > 100
[O-][n+]1c2ccccc2nn1-c1ccc(O)cc1 | > 100

System: Coxsackievirus B5
Test: Antiviral activity against human CVB5 infected in african green monkey Vero76 cells assessed as inhibition of virus-induced cytopathogenicity after 3 days by plaque reduction assay
Format: functional, organism-based
Details: Enterovirus B, Vero 76, 72 h

Compound | EC50 [µM]
COc1cc(C(=O)OCCn2nc3ccccc3n2)cc(OC)c1OC | > 100
COc1ccc(-n2nc3cc(Cl)c(Cl)cc3n2)cc1 | > 100
O=C(Cn1nc2ccccc2n1)N1CCOCC1 | > 100
COc1cc(/C=C/C(=O)OCCn2nnc3ccccc32)cc(OC)c1OC | > 100
[O-][n+]1c2ccccc2nn1-c1ccc(O)cc1 | > 100
COc1cc(C(=O)OCCn2nnc3ccccc32)cc(OC)c1OC | > 100

System: Human orthopneumovirus
Test: Antiviral activity against human RSV infected in african green monkey Vero76 cells assessed as inhibition of virus-induced cytopathogenicity after 5 days by plaque reduction assay
Format: functional, organism-based
Details: human respiratory syncytial virus, Vero 76, 120 h

Compound | EC50 [µM]
COc1cc(C(=O)OCCn2nc3ccccc3n2)cc(OC)c1OC | > 100
COc1ccc(-n2nc3cc(Cl)c(Cl)cc3n2)cc1 | > 100
O=C(Cn1nc2ccccc2n1)N1CCOCC1 | > 100
COc1cc(/C=C/C(=O)OCCn2nnc3ccccc32)cc(OC)c1OC | > 100
[O-][n+]1c2ccccc2nn1-c1ccc(O)cc1 | > 100
COc1cc(C(=O)OCCn2nnc3ccccc32)cc(OC)c1OC | > 100

System: Poliovirus 1
Test: Antiviral activity against Human poliovirus 1 Sabin infected in african green monkey Vero76 cells assessed as inhibition of virus-induced cytopathogenicity by plaque reduction assay
Format: functional, organism-based
Details: Enterovirus C, Vero 76

Compound | EC50 [µM]
COc1ccc(-n2nc3cc(Cl)c(Cl)cc3n2)cc1 | > 100
[O-][n+]1c2ccccc2nn1-c1ccc(O)cc1 | > 100

System: Human immunodeficiency virus 1
Test: Antiviral activity against HIV-1 infected in MT4 cells assessed as inhibition of virus-induced cytopathogenicity after 4 days by MTT assay
Format: functional, organism-based
Details: Human immunodeficiency virus 1, MT4, 96 h

Compound | EC50 [µM]
COc1cc(C(=O)OCCn2nc3ccccc3n2)cc(OC)c1OC | > 100
COc1ccc(-n2nc3cc(Cl)c(Cl)cc3n2)cc1 | > 100
O=C(Cn1nc2ccccc2n1)N1CCOCC1 | > 100
COc1cc(/C=C/C(=O)OCCn2nnc3ccccc32)cc(OC)c1OC | > 100
[O-][n+]1c2ccccc2nn1-c1ccc(O)cc1 | > 100
Cc1cc2nnn(C3CCCO3)c2cc1C (configuration not stated) | > 100
COc1cc(C(=O)OCCn2nnc3ccccc32)cc(OC)c1OC | > 100
Clc1cc2nn(C3CCCO3)nc2cc1Cl (configuration not stated) | > 100

System: Vesicular stomatitis virus
Test: Antiviral activity against VSV
Format: functional, organism-based
Details: not given

Compound | EC50 [µM]
COc1cc(C(=O)OCCn2nc3ccccc3n2)cc(OC)c1OC | > 100
COc1ccc(-n2nc3cc(Cl)c(Cl)cc3n2)cc1 | > 100
O=C(Cn1nc2ccccc2n1)N1CCOCC1 | > 100
COc1cc(/C=C/C(=O)OCCn2nnc3ccccc32)cc(OC)c1OC | > 100
[O-][n+]1c2ccccc2nn1-c1ccc(O)cc1 | > 100
COc1cc(C(=O)OCCn2nnc3ccccc32)cc(OC)c1OC | > 100

System: Vaccinia virus
Test: Antiviral activity against Vaccinia virus
Format: functional, organism-based
Details: Orthopoxvirus vaccinia

Compound | EC50 [µM]
COc1cc(C(=O)OCCn2nc3ccccc3n2)cc(OC)c1OC | > 100
COc1ccc(-n2nc3cc(Cl)c(Cl)cc3n2)cc1 | > 100
O=C(Cn1nc2ccccc2n1)N1CCOCC1 | > 100
COc1cc(/C=C/C(=O)OCCn2nnc3ccccc32)cc(OC)c1OC | > 100
[O-][n+]1c2ccccc2nn1-c1ccc(O)cc1 | > 100
COc1cc(C(=O)OCCn2nnc3ccccc32)cc(OC)c1OC | > 100
